Here are results for four substances from patent EP2949339A1, “Agonist of CD1c-restricted T cells and uses thereof” (Ospedale San Raffaele S.r.l., priority 2014, dated 2015).

Assay [1] concerns CD1c self-reactive T cells. Put plainly: T cell activation assay with lipid-pulsed CD1c+ APCs (GM-CSF and/or IFN-γ release, ELISA). The format is cell-based, human. To be noted: same T cells; data not shown. The method, then:
T cell activation assays were performed by co-culturing the indicated numbers of target cells (5x10^4/well unless otherwise indicated) with T cells (5x10^4/well) in 200µl volume in duplicate or triplicate cultures. In some experiments, mouse anti-CD1c (L161, Abcam) or mouse IgG1 isotype control mAbs were added and incubated for 30 min prior to the addition of T cells. Supernatants were collected after 24-48 hours and cytokines released by T cells (GM-CSF and/or IFN-γ) were measured by ELISA. In assays using fractionated lipids, THP1-CD1c cells (5x10^4/well) were fixed with 0.05% glutaraldehyde for 20 s and used as APCs. Fold change in cytokine release was calculated using the following formula: GM-CSF release with lipid pulsed APC / GM-CSF release with un-pulsed APC. In some experiments, normal B cells purified from PBMCs (5x10^4/well) were used as APCs without prior fixation. APCs were pulsed with lipids for 4 hours at the indicated dilutions before addition of T cells.
On the technique in general: In an ELISA, binding on a coated surface is turned into a signal by an enzyme label.

Assay [2] deals with CD1c self-reactive T cells. Put plainly: sCD1c-plate-bound T cell activation assay. The assay is classed as cell-based, human. To be noted: CD1c self-reactive clones DN4.99, K34A27f; GM-CSF release; Fig. 1E, 3 C. The method, then:
sCD1c-plate-bound assays were performed using MaxiSorp plates (Nunc) coated with anti-BirA mAb (Nowbakht et al., 2005) to capture sCD1c and were then incubated with lipids for 6 hours. The wells were extensively washed before addition of T cells.
Recombinant soluble human CD1c tagged with BirA peptide (sCD1c), was obtained and purified using techniques similar to those previously described (Garcia-Alles et al., 2006). The following primers were used to PCR amplify the extracellular domain of human CD1c: forward XhoI 5'- […] (SEQ ID No. 3) and reverse ClaI 5'-[…] (SEQ ID No. 4). sCD1c was purified from J558-transfected cell culture supernatants by affinity chromatography using anti-CD1c mAb (10C3, BD Pharmingen).

lysophosphatidic acid [LPA]: the “doses at which T cells were very weakly stimulated” value (shortened to “doses”) in assay [1] is “above 50 µg/ml”.

For lysophosphatidylcholine [LPC], the “doses” value in assay [1] is reported as “above 50 µg/ml”.

Consider lysophosphatidylethanolamine [LPE], for which the “doses” value in assay [1] is “above 50 µg/ml”.

As for sulfatide, the “stimulation of T cells by lipid presented by plastic-bound sCD1c” value in assay [2] is recorded as “failed to stimulate”.
